Publication PMC5104943, “Structural and Functional Characterization of a Ruminal β-Glycosidase Defines a Novel Subfamily of Glycoside Hydrolase Family 3 with Permuted Domain Topology” (The Journal of Biological Chemistry, 2016)

Biological target: T1, GlyA1-ΔCt (rumen metagenome, UniProt Z9J456A3C9)
T1 sequence (Z9J456A3C9 2-799): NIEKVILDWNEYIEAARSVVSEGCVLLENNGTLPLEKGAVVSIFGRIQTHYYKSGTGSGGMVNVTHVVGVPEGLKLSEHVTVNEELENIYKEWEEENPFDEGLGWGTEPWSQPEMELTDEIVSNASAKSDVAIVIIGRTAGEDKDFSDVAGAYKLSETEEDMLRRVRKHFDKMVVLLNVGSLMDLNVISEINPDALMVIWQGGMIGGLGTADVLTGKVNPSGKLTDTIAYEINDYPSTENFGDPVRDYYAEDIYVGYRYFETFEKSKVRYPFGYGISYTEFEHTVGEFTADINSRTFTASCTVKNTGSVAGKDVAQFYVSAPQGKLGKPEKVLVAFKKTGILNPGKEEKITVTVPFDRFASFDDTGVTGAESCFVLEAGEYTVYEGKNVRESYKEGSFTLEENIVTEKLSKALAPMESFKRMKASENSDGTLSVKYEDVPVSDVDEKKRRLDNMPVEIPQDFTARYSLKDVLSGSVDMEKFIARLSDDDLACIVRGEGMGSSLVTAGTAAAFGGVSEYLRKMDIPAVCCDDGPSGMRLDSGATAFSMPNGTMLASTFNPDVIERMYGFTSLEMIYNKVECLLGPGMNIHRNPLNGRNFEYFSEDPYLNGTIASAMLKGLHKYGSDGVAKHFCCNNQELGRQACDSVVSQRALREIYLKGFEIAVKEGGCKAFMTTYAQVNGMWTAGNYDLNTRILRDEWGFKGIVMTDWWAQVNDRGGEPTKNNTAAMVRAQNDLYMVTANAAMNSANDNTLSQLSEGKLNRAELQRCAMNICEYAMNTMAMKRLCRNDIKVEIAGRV
Experiment: X-ray crystallography, […] Å, soak […]
Assay type: binding
Conditions: active site subsite -1, semi-chair conformation; 2.0 M ammonium sulfate, pH 5.5

## OC[C@H]1OC(O)[C@H](O)[C@@H](O)[C@H]1O (stereo partly drawn) [D-galactose]
  X-ray crystallography, 2.29 Å, soak 5-50 mM: soaking of crystals with galactose showed that this sugar displays a semi-chair conformation
